Common to all, as to format: cell-based
Assay [1] concerns the target T1, BRD4 (Homo sapiens, UniProt O60885).
T1 construct: expressed in transfected cells; host or cells: N2a cells, transient transfection
As to the kind of experiment: BRD4 recruitment to coilin-HaloTag® in live N2a cells (no wash lattice lightsheet microscopy). To be noted: 100 nM. On the procedure: (§1) Live cell protein imaging and manipulation using JQ1-rhodamine-HaloTag® ligand. The ability of JQ1 ligands to recruit BET family protein BRD4 to HaloTag® fusion proteins at distinct genomic regions in N2a cells was then tested (FIG. 13A). N2a cells are neural progenitor cells that are frequently utilized to study neuronal differentiation and axonal growth. […] N2a cells were transiently transfected with plasmids encoding the HaloTag® protein fused to the following nuclear proteins: (1) constitutive heterochromatin marker heterochromatin protein 1 (HP1); (2) Cajal body component coilin; and (3) centromere localized histone H3 variant centromere protein A (CENP-A). These three proteins have a very distinct distribution in the nucleus than BRD4 which generally has an euchromatic distribution. Localization of BRD4 to specific gene loci can induce gene expression. […]
(§2) Initially, a side-by-side comparison of JF646 based 17 and JF635 based 18 was performed for recruiting BRD4 to coilin-HaloTag® under a “no wash” lattice lightsheet fluorescence microscopy setup. […] Advantageously, 18 also has lower absorptivity and negligible fluorescence quantum yield before HaloTag® conjugation. “No wash” imaging was performed and the fluorescence from JF635 and sfGFP were monitored. […] The […] HP1-HaloTag® labeled with either JF635-HaloTag® ligand (5HTL) or the JQ1 analog 18 were quantified (FIG. 13J).

Assay [2] concerns the target T1, BRD4. The assay is described as follows: BRD4 recruitment to HP1-HaloTag® in live N2a cells (no wash lattice lightsheet microscopy). To be noted: 100 nM. How it is done: as §1, §2
Assay [3] has as its target T2, msGFP-HaloTag® fusion protein (mitochondria) from HEK293T cells (Rhodococcus rhodochrous, UniProt P0A3G2, A155T/A167V/A172T/A224E/C128F/C176G/D78G/E160K/E257K/H272N/K175M/K195N/L47V/L88M/N227D/S58T/T264A/Y273L/Y87F).
T2 construct: and (4) HaloTag®; expressed in transfected cells; host or cells: HEK293T, calcium phosphate transfection
As to the kind of experiment: Affinity capture (streptavidin microbeads) and in-gel fluorescence. The note with it: streptavidin beads. How it is done:
Affinity capture and in-gel fluorescence experiments. Affinity capture pulldown isolation experiments of biotin-labeled HaloTag® fusion proteins were performed on ice-cold isolation buffer (IB) consisting of KCl (0.18 M), ethylene glycol-bis(β-aminoethyl ether)-N,N,N′,N′-tetraacetic acid (EGTA; 1 mM), 3-(N-morpholino)propanesulfonic acid (MOPS; 5 mM); the pH was adjusted to pH=7.35 using KOH(aq).^51 HEK293T cells were scraped with 500 μL IB and homogenized using 12 strokes with a 27G syringe. The resulting homogenate was spun at 4° C. at 1000 g for 3 min to pellet large cellular debris. 50 μL of streptavidin-coated microbeads (Miltenyi, 130-048-101) were added to the supernatant and incubated for 30 min at 4° C. with slow rotation. LS columns (Miltenyi, 130-042-401) were prepared by first washing with 3 mL IB consisting of 2.5% bovine serum albumin (BSA; Jackson ImmunoResearch, 001-000-162) and then with plain IB (3×). Prior to supernatant-microbead mixture being loaded onto LS columns, 5% volume was taken for downstream total fraction calculations (i.e., the “total/20” sample). Columns and samples were kept at 4° C. (cold room) while samples were loaded onto columns and washed with IB (3×); this fraction was collected as designated as “wash”. After the washing step, the column was removed from the QuadroMACs magnet holder (Miltenyi, 130-092-857) and eluted with gentle plunge action into an Eppendorf tube; this was labeled as “eluate”. From here, there were three fractions for each condition: total/20, wash (unbound), and eluate (bound). Since mitochondria were being isolated, these samples were spun at 4° C. and 20,000 g to pellet mitochondria. These samples were then solubilized using the lysis buffer containing 1×PBS, 2% SDS, 1% Triton x-100, 10 mM EDTA, and protease inhibitors (2 mM PMSF, aprotinin, leupeptin, and pepstatin A). Samples were then incubated at 72° C. for 3-4 min after the addition of sample buffer (SB) (DTT, glycerol, and bromophenol blue). For protein detection, 10-20 μL of the sample was subjected to sodium dodecyl sulfate-polyacrylamide gel electrophoresis (SDS-PAGE), using 13% gels. The affinity capture pulldown efficiency was monitored using in-gel fluorescence. The msGFP signal from HaloTag®-TEV-4×GS-msGFP-mito after cell lysis and SDS-PAGE was analyzed, in-gel, using a BioRad Chemidoc MP imager (BioRad) through GFP fluorescence excitation and emission filters. Data were quantified by densitometry using Fiji.^52 Capture efficiency was calculated using equation 3:
[formula] • where Ieluate is the in-gel fluorescence intensity of the bead-bound fraction and Itotal/20 is the in-gel fluorescence intensity of the 5% of crude sample reserved for concentration control (i.e., the “total/20” sample).
Evaluation of biotin-HaloTag® ligand. A live cell permeable biotin reagent was saught for affinity pulldown of HaloTag® fusion proteins, given the broad utility of biotin conjugates in biochemistry and cell biology. To evaluate the performance of biotin-containing HaloTag® ligand, an assay was developed (FIG. 3A) where the HaloTag® is expressed as a fusion with monomeric superfolder green fluorescent protein (msGFP); the construct also included an OMP25 sequence to localize the fusion protein to the outer mitochondrial membrane, allowing straightforward imaging and affinity capture experiments.^28-29 HEK293T cells expressing this fusion protein were incubated with biotin-containing HaloTag® ligands followed by washing and cell lysis. The crude supernatant was incubated with streptavidin-coated magnetic microbeads, applied to a magnetic column, and washed. The magnet was removed, and the bead-bound mitochondria were eluted, lysed, and the resulting solution was analyzed by sodium dodecyl sulfate-polyacrylamide gel electrophoresis (SDS-PAGE) and in-gel fluorescence. To minimize dilution of the sample only the initial bead-bound fraction was collected, leaving some material on the column. […]

In assay [4] the target is T3, msGFP-HaloTag® fusion localized to the mitochondrial outer membrane (Rhodococcus rhodochrous, UniProt P0A3G2, A155T/A167V/A172T/A224E/C128F/C176G/D78G/E160K/E257K/H272N/K175M/K195N/L47V/L88M/N227D/S58T/T264A/Y273L/Y87F).
T3 construct: expressed in transfected cells; host or cells: HEK293T, calcium phosphate transfection
How it is done: HEK293T labeling and fluorescence microscopy. […] For pulse-chase experiments, HEK293T cells were incubated with biotin-HaloTag® ligand (6; #G8281, Promega) at either 100 nM or 10 μM for 1 hour at 37° C. and chased with 100 nM of JANELIA FLUOR® (JF)549-HaloTag® ligand (2HTL). […] For imaging, the coverslips containing HEK293T cells were fixed with 4% paraformaldehyde in PBS at 37° C. for 10 min, washed with PBS (3×), and mounted on glass slides with ProLong Glass Antifade Mountant with NucBlue™ Stain (ThermoFisher; P36981). These cells were imaged using a Zeiss LSM 880 with Airyscan and a plan-apochromatic 63×/1.40 oil objective in Fast Airyscan mode. The same image acquisition settings were used for each trial and condition. Images were then processed with automatic Airyscan deconvolution settings.

“Also recorded” adds a separate entry of the source.

T3 sequence (P0A3G2 other isoform, or with tags, fused parts or gaps with the stated changes): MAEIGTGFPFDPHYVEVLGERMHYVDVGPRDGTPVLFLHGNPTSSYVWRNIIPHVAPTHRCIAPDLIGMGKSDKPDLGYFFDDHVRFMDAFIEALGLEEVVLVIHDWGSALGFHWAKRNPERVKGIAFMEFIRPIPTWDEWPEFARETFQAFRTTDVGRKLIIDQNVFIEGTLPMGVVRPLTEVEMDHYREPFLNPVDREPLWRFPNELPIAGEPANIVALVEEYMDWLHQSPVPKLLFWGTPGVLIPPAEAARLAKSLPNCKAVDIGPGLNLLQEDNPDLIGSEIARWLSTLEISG
T2 sequence (P0A3G2 other isoform, or with tags, fused parts or gaps with the stated changes): as above

With `Cc1sc2c(c1C)C(c1ccc(Cl)cc1)=N[C@H](CC(=O)NCCCCOCCOCCNC(=O)C1(F)C[N+](=C3C=CC4=C(c5cc(C(=O)NCCOCCOCCCCCCCl)ccc5C(=O)[O-])c5ccc(N6CC(F)C6)cc5[Si](C)(C)C4=C3)C1)c1nnc(C)n1-2` (stereo partly drawn) [compound 19, (−)-JQ1-JF635-HaloTag® ligand], the “BRD4 recruitment to coilin-HaloTag®” value in assay [1] is “did not result in BRD4 localization”. The “BRD4 localization to HP1-HaloTag®” value in assay [2] is “did not result in BRD4 localization”.

Take `O=C(CCCC[C@@H]1SC[C@@H]2NC(=O)N[C@@H]21)NCCOCCOCCCCCCCl` [compound 6, biotin-HaloTag® ligand]: in assay [3], the “affinity capture (protein bound to streptavidin)” value is given as “prevents purification of HaloTag®-expressing mitochondria; also recorded: no appreciable affinity capture”. The “labeling of HaloTag®-msGFP fusion by pulse-chase (JF549/msGFP ratio after 2HTL chase)” value in assay [4] (HEK293T, 10 μM (μM concentrations), 1 h pulse) was “substantially reduced JF549/msGFP ratio; also recorded: labels the HaloTag®-msGFP fusion in living cells; also recorded: substantially labeled the HaloTag® protein fusion”. For the same compound, the “labeling of HaloTag®-msGFP fusion by pulse-chase” value in assay [4] (HEK293T, nanomolar concentration (100 nM)) is given as “poor labeling”. For the same compound, the “concentration required to achieve cellular labeling” value in assay [4] (live cells) was 10 µM.

Values taken from patent publication US20240239818A1, “COMPOUNDS AND COMPOSITIONS COMPRISING FLUOROPHORES FOR USE IN VISUALIZATION AND PURIFICATION OR MANIPULATION” (priority 2022, published 2024).
